Where two headings read alike, the source gives them in different places.
Tested on: M. mycetomatis genome strain MM55
Assay: CLSI M38-A2 based in vitro susceptibility screening (XTT or resazurin), growth at fixed concentration
Type: cell-based, Madurella mycetomatis
Conditions: Madurella mycetomatis; for Percent fungal survival at 100 µM: read-out: Percentage survival at 100um, 100 uM A (second replicate column)
[1] = mean of replicates, read-out: Percentage survival at 25um, 25 uM mean
[2] = replicate A, read-out: Percentage survival at 25um, 25 um A
[3] = replicate B, read-out: Percentage survival at 25um, 25 uM B
[4] = replicate C, read-out: Percentage survival at 25um, 25 uM C
[5] = mean of replicates, read-out: Percentage survival at 100um, 100 uM mean
[6] = replicate 1, read-out: Percentage survival at 100um, 100 uM A
[7] = replicate 2, read-out: Percentage survival at 100um, 100 uM A
[8] = replicate 3, read-out: Percentage survival at 100um, 100 uM A
[9] = mean, read-out: Percentage survival at 25um, 25 uM mean
[10] = mean, read-out: Percentage survival at 100um, 100 uM mean
[11] = replicate (first column), read-out: Percentage survival at 100um, 100 uM A
[12] = replicate (second column), read-out: Percentage survival at 100um, 100 uM A
[13] = replicate (third column), read-out: Percentage survival at 100um, 100 uM A
[14] = mean of three replicates, read-out: Percentage survival at 25um, 25 uM mean
[15] = mean of three replicates, read-out: Percentage survival at 100um, 100 uM mean
[16] = replicate 1, read-out: Percentage survival at 100um, 100 uM A (first replicate column)
[17] = replicate 3, read-out: Percentage survival at 100um, 100 uM A (third replicate column)
[18] = mean of replicates, MM55, read-out: Percentage survival at 25um, 25 uM mean
[19] = replicate A, MM55, read-out: Percentage survival at 25um, 25 um A
[20] = replicate B, MM55, read-out: Percentage survival at 25um, 25 uM B
[21] = replicate C, MM55, read-out: Percentage survival at 25um, 25 uM C
[22] = mean of replicates, MM55, read-out: Percentage survival at 100um, 100 uM mean
[23] = replicate 1, MM55, read-out: Percentage survival at 100um, 100 uM A
[24] = replicate 2, MM55, read-out: Percentage survival at 100um, 100 uM A
[25] = replicate 3, MM55, read-out: Percentage survival at 100um, 100 uM A

How did the activity at 25 µM [1] turn out when `Nc1nc(-c2ccccc2)nc2c1ncn2[C@@H]1O[C@H](COS(=O)(=O)NC(=O)c2ccccc2O)[C@@H](O)[C@H]1O` [MMV1582488] was run?
Its activity at 25 µM is 78%.

What about the activity at 25 µM [2] of the same compound?
The activity at 25 µM was 74.7%.

What about the activity at 25 µM [3] of the same compound?
The activity at 25 µM was 83.6%.

And the activity at 25 µM [4]?
Its activity at 25 µM is 75.7%.

And the activity at 100 µM [5]?
Its activity at 100 µM is 72.1%.

And the activity at 100 µM [6]?
Its activity at 100 µM is 75.9%.

And the activity at 100 µM [7]?
Its activity at 100 µM is 69.3%.

What about the activity at 100 µM [8] of the same compound?
The activity at 100 µM was 71.1%.

With `O=C(NCc1ccc2c3c(cccc13)C(=O)N2)c1cccs1` [MMV1341773] as the compound, how does the activity at 25 µM [1] read?
Its activity at 25 µM is 75.4%.

And the activity at 25 µM [2]?
Its activity at 25 µM is 79.8%.

What about the activity at 25 µM [3] of the same compound?
Its activity at 25 µM is 76.7%.

And the activity at 25 µM [4]?
Its activity at 25 µM is 69.6%.

And the activity at 100 µM [5]?
Its activity at 100 µM is 76.2%.

And the activity at 100 µM [6]?
The activity at 100 µM was 75.7%.

And the activity at 100 µM [7]?
Its activity at 100 µM is 74%.

What about the activity at 100 µM [8] of the same compound?
Its activity at 100 µM is 78.8%.

Which activity at 25 µM [9] does the source give for `COc1cc(C2C3=C(CC(C)(C)CC3=O)Nc3ccccc3N2C(C)=O)ccc1OCc1ccccc1` (stereo not drawn) [MMV1634557] here?
Its activity at 25 µM is 82.1%.

And the activity at 25 µM [2]?
Its activity at 25 µM is 90.5%.

And the activity at 25 µM [3]?
Its activity at 25 µM is 79.1%.

What about the activity at 25 µM [4] of the same compound?
Its activity at 25 µM is 76.6%.

What about the activity at 100 µM [10] of the same compound?
The activity at 100 µM was 85.5%.

What about the activity at 100 µM [11] of the same compound?
The activity at 100 µM was 92.5%.

What about the activity at 100 µM [12] of the same compound?
The activity at 100 µM was 79.5%.

And the activity at 100 µM [13]?
The activity at 100 µM was 84.5%.

What does the source list for `O=C(NNC(=S)Nc1ccc(Cl)cc1)c1ccncc1` [MMV1782227]?
activity at 25 µM [9]: 85.9%; activity at 25 µM [2]: 105%; activity at 25 µM [3]: 86.1%; activity at 25 µM [4]: 67%; activity at 100 µM [10]: 121%; activity at 100 µM [11]: 128%; activity at 100 µM [12]: 90.7%; activity at 100 µM [13]: 144%

`NC(=O)c1cnccn1` [MMV003249] was tested. Which activity at 25 µM [14] did it give?
Its activity at 25 µM is 83.1%.

What about the activity at 25 µM [2] of the same compound?
Its activity at 25 µM is 89.2%.

What about the activity at 25 µM [3] of the same compound?
Its activity at 25 µM is 75.7%.

What about the activity at 25 µM [4] of the same compound?
The activity at 25 µM was 84.4%.

And the activity at 100 µM [15]?
The activity at 100 µM was 60%.

And the activity at 100 µM [16]?
The activity at 100 µM was 53.7%.

And the Percent fungal survival at 100 µM (replicate 2)?
Its Percent fungal survival at 100 µM is 70%.

What about the activity at 100 µM [17] of the same compound?
Its activity at 100 µM is 56.3%.

Which activity at 25 µM [14] does the source give for `Cc1ccc(C)c(OCCCCCCN2C[C@H](O)[C@@H](O)[C@H](O)[C@H]2CO)c1` [MMV1634401] here?
The activity at 25 µM was 82.7%.

What about the activity at 25 µM [2] of the same compound?
Its activity at 25 µM is 64.4%.

And the activity at 25 µM [3]?
The activity at 25 µM was 87.6%.

What about the activity at 25 µM [4] of the same compound?
Its activity at 25 µM is 96.1%.

What about the activity at 100 µM (first replicate column, read-out: Percentage survival at 100um, 100 uM A) of the same compound?
Its activity at 100 µM is 83.4%.

And the activity at 100 µM [15]?
Its activity at 100 µM is 82.2%.

And the activity at 100 µM (second replicate column, read-out: Percentage survival at 100um, 100 uM A)?
Its activity at 100 µM is 82.8%.

And the activity at 100 µM (third replicate column, read-out: Percentage survival at 100um, 100 uM A)?
The activity at 100 µM was 80.5%.

Which activity at 25 µM [18] does the source give for `C=C(C)[C@@H]1CC[C@]2(C(=O)O)CC[C@]3(C)[C@H](CC[C@@H]4[C@@]5(C)CC[C@H](O)C(C)(C)[C@@H]5CC[C@]43C)[C@@H]12` [MMV638198] here?
Its activity at 25 µM is 78.4%.

What about the activity at 25 µM [19] of the same compound?
The activity at 25 µM was 65.7%.

And the activity at 25 µM [20]?
The activity at 25 µM was 92.3%.

And the activity at 25 µM [21]?
Its activity at 25 µM is 77.1%.

What about the activity at 100 µM [22] of the same compound?
The activity at 100 µM was 79.4%.

What about the activity at 100 µM [23] of the same compound?
Its activity at 100 µM is 83.2%.

What about the activity at 100 µM [24] of the same compound?
Its activity at 100 µM is 80.2%.

And the activity at 100 µM [25]?
Its activity at 100 µM is 74.7%.

How did the activity at 25 µM [14] turn out when `CC(Cc1ccccc1)C(=O)Nc1ccc(Cl)cc1C(=O)O` (stereo not drawn) [MMV1579781] was run?
The activity at 25 µM was 92.5%.

What about the activity at 25 µM [2] of the same compound?
Its activity at 25 µM is 104%.

What about the activity at 25 µM [3] of the same compound?
The activity at 25 µM was 93.1%.

What about the activity at 25 µM [4] of the same compound?
The activity at 25 µM was 80.7%.

And the activity at 100 µM [15]?
The activity at 100 µM was 85.9%.

What about the activity at 100 µM [16] of the same compound?
Its activity at 100 µM is 87.4%.

And the Percent fungal survival at 100 µM (replicate 2)?
The Percent fungal survival at 100 µM was 82.1%.

And the activity at 100 µM [17]?
Its activity at 100 µM is 88.1%.

How did the activity at 25 µM [18] turn out when `CCn1cc(C(=O)O)c(=O)c2cc(F)c(N3CCNC(C)C3)c(F)c21` (stereo not drawn) [MMV002350] was run?
The activity at 25 µM was 91.3%.

And the activity at 25 µM [19]?
Its activity at 25 µM is 97.9%.

What about the activity at 25 µM [20] of the same compound?
The activity at 25 µM was 93.8%.

And the activity at 25 µM [21]?
Its activity at 25 µM is 82.3%.

What about the activity at 100 µM [22] of the same compound?
Its activity at 100 µM is 89%.

And the activity at 100 µM [23]?
Its activity at 100 µM is 92.8%.

And the activity at 100 µM [24]?
The activity at 100 µM was 92.2%.

What about the activity at 100 µM [25] of the same compound?
The activity at 100 µM was 82.2%.

From article PMC8815882, “Screening the pandemic response box identified benzimidazole carbamates, Olorofim and ravuconazole as promising drug candidates for the treatment of eumycetoma” (PLoS Neglected Tropical Diseases, 2022)
